# Measured values reported in patent US20240247080A1, “GLP1/GIP/NPY2 RECEPTOR TRIPLE AGONISTS” (Boehringer Ingelheim International GmbH, priority 2022, published 2024).
# Read-outs that look alike come from different tables or passages of the source. Starred links: 1 amine or outer side, 2 acyl side, 3 side chain; linkers in the order of their positions; H or OH if unused. Non-standard residues stand in square brackets, D forms with d. Groups on a side chain read outwards from the residue. *: point of attachment. C20 diacid = O=C(O)CCCCCCCCCCCCCCCCCCC(=O)*; C18 diacid = O=C(O)CCCCCCCCCCCCCCCCC(=O)*; γGlu = O=C(O)[C@H](CCC(=O)[*:2])N[*:1]; εLys = N[C@@H](CCCCN[*:1])C(=O)[*:2]; AEEA = NCCOCCOCC(=O)O; Aib = CC(C)(N)C(=O)O
# What was measured:
# Format in all cases: cell-based
# Conditions in all cases: CreLuc reporter gene assay
# [1] = molecular target: T1, hGIPR (Homo sapiens, UniProt P48546); experiment: hGIPR CreLuc reporter gene assay in 0.5% and 100% plasma
# T1 construct: expressed in transfected cells; host or cells: CHO cells carrying a CRE-luciferase reporter gene
# T1 sequence (P48546 22-466): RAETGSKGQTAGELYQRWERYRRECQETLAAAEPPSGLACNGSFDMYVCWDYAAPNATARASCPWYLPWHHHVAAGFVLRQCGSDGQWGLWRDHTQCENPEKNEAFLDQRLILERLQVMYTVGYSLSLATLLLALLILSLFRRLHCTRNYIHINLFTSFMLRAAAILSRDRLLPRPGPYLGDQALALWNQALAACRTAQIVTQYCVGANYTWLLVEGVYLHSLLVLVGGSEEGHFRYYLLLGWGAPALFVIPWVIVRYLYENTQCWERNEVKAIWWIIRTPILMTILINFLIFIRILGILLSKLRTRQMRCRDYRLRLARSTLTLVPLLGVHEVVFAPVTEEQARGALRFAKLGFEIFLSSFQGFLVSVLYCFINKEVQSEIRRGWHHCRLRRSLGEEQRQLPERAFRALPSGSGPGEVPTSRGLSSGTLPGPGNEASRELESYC
# Summary of the method: (§1)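 Agonist EC50s came from 8-concentration curves over four decades, fitted by non-linear variable-slope regression of CRE-driven luciferase luminescence. Cells were exposed 4 h at 37 °C, in buffer with 0.5% human plasma or in 100% plasma; GIPR was expressed in CHO cells, GLP-1R and NPY2R in HEK cells.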
# [2] = molecular target: T2, hNPY2R (Homo sapiens, UniProt P49146); experiment: hNPY2R CreLuc reporter gene assay in 0.5% and 100% plasma
# T2 construct: expressed in transfected cells; host or cells: HEK-293 cells carrying a CRE-luciferase reporter gene
# T2 sequence (P49146 1-381): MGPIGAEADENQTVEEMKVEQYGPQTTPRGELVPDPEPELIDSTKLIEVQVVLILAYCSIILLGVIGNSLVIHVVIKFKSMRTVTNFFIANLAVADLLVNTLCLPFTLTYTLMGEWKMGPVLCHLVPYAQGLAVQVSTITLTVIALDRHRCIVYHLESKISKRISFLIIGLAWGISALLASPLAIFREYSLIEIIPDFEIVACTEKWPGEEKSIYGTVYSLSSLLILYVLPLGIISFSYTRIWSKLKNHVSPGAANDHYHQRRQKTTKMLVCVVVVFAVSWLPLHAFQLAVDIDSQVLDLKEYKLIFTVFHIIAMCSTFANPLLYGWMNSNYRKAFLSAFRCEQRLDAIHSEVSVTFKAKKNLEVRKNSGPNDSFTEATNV
# Summary of the method: as §1
# [3] = molecular target: T3, hGLP1R (Homo sapiens, UniProt P43220); experiment: hGLP1R CreLuc reporter gene assay in 0.5% and 100% plasma
# T3 construct: expressed in transfected cells; host or cells: HEK-293 cells carrying a CRE-luciferase reporter gene
# Summary of the method: as §1
# [4] = 0.5% human plasma, read-out: hGIPR 0.5% hP
# [5] = 100% human plasma, read-out: hGIPR 100% hP
# [6] = 0.5% human plasma, read-out: hNPY2R 0.5% hP
# [7] = 0.5% human plasma, read-out: hGLP1R 0.5% hP
# [8] = 100% human plasma, read-out: hGLP1R 100% hP
# [9] = 100% human plasma, read-out: hNPY2R 100% hP
# T3 sequence (P43220 24-463): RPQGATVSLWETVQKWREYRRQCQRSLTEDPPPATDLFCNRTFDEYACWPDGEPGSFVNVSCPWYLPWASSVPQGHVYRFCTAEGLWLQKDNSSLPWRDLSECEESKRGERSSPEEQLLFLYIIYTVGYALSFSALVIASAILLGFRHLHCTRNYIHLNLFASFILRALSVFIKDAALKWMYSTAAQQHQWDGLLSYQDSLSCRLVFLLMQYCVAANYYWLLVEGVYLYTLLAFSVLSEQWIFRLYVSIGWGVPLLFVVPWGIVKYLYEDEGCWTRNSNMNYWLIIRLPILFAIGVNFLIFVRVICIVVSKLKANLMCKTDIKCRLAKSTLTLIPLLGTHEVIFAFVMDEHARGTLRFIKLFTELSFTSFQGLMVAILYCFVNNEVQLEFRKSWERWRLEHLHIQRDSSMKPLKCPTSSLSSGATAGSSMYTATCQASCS
"EC50 [1, 4] [nM]","EC50 [1, 5] [nM]","EC50 [2, 6] [nM]","EC50 [3, 7] [nM]","EC50 [3, 8] [nM]","EC50 [2, 9] [nM]",Substance
0.23,0.63,16.9,0.13,,,"H-Y[Aib]EGTFTSDYSI[Aib]LEEEAQ[Aib]AFVQWLIK([εLys-εLys-γGlu-γGlu-γGlu-γGlu-γGlu-C20 diacid])GGPSSGASLRHYYNWLTRQRY-NH2 [Compound 7, Y-Aib-E-G-T-F-T-S-D-Y-S-I-Aib-L-E-E-E-A-Q-Aib-A-F-V-Q-W-L-I-K(1,3)-GGPSSGASLRHYYNWLTRQRY-NH2.C20DA-gGlu-gGlu-gGlu-gGlu-gGlu-eLys-eLys(1,2)]"
0.1,0.87,11.2,0.12,2.21,,"H-Y[Aib]EGTFTSDYSI[Aib]LEEQAQ[Aib]AFVEWLIK([εLys-AEEA-AEEA-γGlu-γGlu-γGlu-γGlu-C20 diacid])GGPSSGASLRHYYNWLTRQRY-NH2 [Compound 100, Y-Aib-E-G-T-F-T-S-D-Y-S-I-Aib-L-E-E-Q-A-Q-Aib-A-F-V-E-W-L-I-K(1,3)-GGPSSGASLRHYYNWLTRQRY-NH2.C20DA-gGlu-gGlu-glu-gGlu-OEG-OEG-eLys(1,2)]"
0.15,1.14,17.5,0.15,,,"H-Y[Aib]EGTFTSDYSI[Aib]LEEQAQ[Aib]AFVEWLIK([εLys-AEEA-γGlu-γGlu-γGlu-γGlu-γGlu-C20 diacid])GGPSSGASLRHYYNWLTRQRY-NH2 [Compound 110, Y-Aib-E-G-T-F-T-S-D-Y-S-I-Aib-L-E-E-Q-A-Q-Aib-A-F-V-E-W-L-I-K(1,3)-GGPSSGASLRHYYNWLTRQRY-NH2.C20DA-gGlu-gGlu-gGlu-gGlu-gGlu-OEG-eLys(1,2)]"
0.14,0.95,14.9,0.15,,70.4,"H-Y[Aib]EGTFTSDYSI[Aib]LEEQAQ[Aib]AFVEWLIK([εLys-γGlu-γGlu-γGlu-γGlu-C20 diacid])GGPSSGASLRHYYNWLTRQRY-NH2 [Compound 97, Y-Aib-E-G-T-F-T-S-D-Y-S-I-Aib-L-E-E-Q-A-Q-Aib-A-F-V-E-W-L-I-K(1,3)-GGPSSGASLRHYYNWLTRQRY-NH2.C20DA-gGlu-gGlu-gGlu-gGlu-eLys(1,2)]"
0.43,3.01,13.5,0.14,2.48,85.7,"H-Y[Aib]EGTFTSDYSI[Aib]LEEQAQ[Aib]AFVEWLIK([εLys-γGlu-γGlu-γGlu-γGlu-γGlu-γGlu-C20 diacid])GGPSSGASLRHYYNWLTRQRY-NH2 [Compound 116, Y-Aib-E-G-T-F-T-S-D-Y-S-I-Aib-L-E-E-Q-A-Q-Aib-A-F-V-E-W-L-I-K(1,3)-GGPSSGASLRHYYNWLTRQRY-NH2.C20DA-gGlu-gGlu-gGlu-gGlu-gGlu-gGlu-eLys(1,2)]"
0.15,,13.4,0.06,,,"H-Y[Aib]EGTFTSDYSI[Aib]LEEQAQ[Aib]AFVEWLIK([εLys-γGlu-γGlu-γGlu-γGlu-γGlu-γGlu-C20 diacid])GGPSSGQSLRHYYNWLTRQRY-NH2 [Compound 31, Y-Aib-E-G-T-F-T-S-D-Y-S-I-Aib-L-E-E-Q-A-Q-Aib-A-F-V-E-W-L-I-K(1,3)-GGPSSGQSLRHYYNWLTRQRY-NH2.C20DA-gGlu-gGlu-gGlu-gGlu-gGlu-gGlu-eLys(1,2)]"
0.91,,16.8,0.41,,,"H-Y[Aib]EGTFTSDYSI[Aib]LEGQAQ[Aib]AFVEWLIK([εLys-γGlu-γGlu-γGlu-γGlu-γGlu-γGlu-C20 diacid])GGPSSGASLRHYYNWLTRQRY-NH2 [Compound 99, Y-Aib-E-G-T-F-T-S-D-Y-S-I-Aib-L-E-G-Q-A-Q-Aib-A-F-V-E-W-L-I-K(1,3)-GGPSSGASLRHYYNWLTRQRY-NH2.C20DA-gGlu-gGlu-gGlu-gGlu-gGlu-gGlu-eLys(1,2)]"
0.28,,20.5,0.13,,,"H-Y[Aib]EGTFTSDYSI[Aib]LEK(Ac)QAQ[Aib]AFVEWLIK([εLys-γGlu-γGlu-γGlu-γGlu-γGlu-γGlu-C20 diacid])GGPSSGASLRHYYNWLTRQRY-NH2 [Compound 192, Y-Aib-E-G-T-F-T-S-D-Y-S-I-Aib-L-E-KAc-Q-A-Q-Aib-A-F-V-E-W-L-I-K(1,3)-GGPSSGASLRHYYNWLTRQRY-NH2.C20DA-gGlu-gGlu-gGlu-gGlu-gGlu-glu-eLys(1,2)]"
0.31,2.03,15.1,0.32,,64.7,"H-Y[Aib]EGTFTSDYSI[Aib]LEKAAQ[Aib]AFVEWLIK([εLys-γGlu-γGlu-γGlu-γGlu-γGlu-γGlu-C20 diacid])GGPSSGASLRHYYNWLTRQRY-NH2 [Compound 136, Y-Aib-E-G-T-F-T-S-D-Y-S-I-Aib-L-E-K-A-A-Q-Aib-A-F-V-E-W-L-I-K(1,3)-GGPSSGASLRHYYNWLTRQRY-NH2.C20DA-gGlu-gGlu-gGlu-gGlu-gGlu-gGlu-eLys(1,2)]"
0.2,1.21,10.2,0.21,,36,"H-Y[Aib]EGTFTSDYSI[Aib]LEKEAQ[Aib]KFVEWLIK([εLys-γGlu-γGlu-γGlu-γGlu-γGlu-γGlu-C20 diacid])GGPSSGASLRHYYNWLTRQRY-NH2 [Compound 46, Y-Aib-E-G-T-F-T-S-D-Y-S-I-Aib-L-E-K-E-A-Q-Aib-K-F-V-E-W-L-I-K(1,3)-GGPSSGASLRHYYNWLTRQRY-NH2.C20DA-gGlu-gGlu-gGlu-gGlu-gGlu-gGlu-eLys(1,2)]"
0.08,0.53,13.2,0.13,,,"H-Y[Aib]EGTFTSDYSI[Aib]LEKQAE[Aib]AFVEWLIK([γGlu-γGlu-γGlu-γGlu-C18 diacid])GGPSEGASLRHYYNWLTRQRY-NH2 [Compound 262, Y-Aib-E-G-T-F-T-S-D-Y-S-I-Aib-L-E-K-Q-A-E-Aib-A-F-V-E-W-L-I-K(1,3)-GGPSEGASLRHYYNWLTRQRY-NH2.C18DA-gGlu-gGlu-gGlu-gGlu(1,2)]"
0.16,,13.5,0.18,,26.5,"H-Y[Aib]EGTFTSDYSI[Aib]LEKQAE[Aib]AFVQWLIK([AEEA-AEEA-γGlu-γGlu-γGlu-γGlu-C18 diacid])GGPSEGASLRHYYNWLTRQRY-NH2 [Compound 156, Y-Aib-E-G-T-F-T-S-D-Y-S-I-Aib-L-E-K-Q-A-E-Aib-A-F-V-Q-W-L-I-K(1,3)-GGPSEGASLRHYYNWLTRQRY-NH2.C18DA-gGlu-gGlu-gGlu-gGlu-OEG-OEG(1,2)]"
0.17,1.26,11.5,0.22,7.71,39.2,"H-Y[Aib]EGTFTSDYSI[Aib]LEKQAE[Aib]AFVQWLIK([εLys-γGlu-γGlu-γGlu-γGlu-C18 diacid])GGPSEGASLRHYYNWLTRQRY-NH2 [Compound 174, Y-Aib-E-G-T-F-T-S-D-Y-S-I-Aib-L-E-K-Q-A-E-Aib-A-F-V-Q-W-L-I-K(1,3)-GGPSEGASLRHYYNWLTRQRY-NH2.C18DA-gGlu-gGlu-gGlu-gGlu-eLys(1,2)]"
0.24,,14,0.22,7.71,,"H-Y[Aib]EGTFTSDYSI[Aib]LEKQAE[Aib]AFVQWLIK([εLys-γGlu-γGlu-γGlu-γGlu-C18 diacid])GGPSEPASLRHYYNWLTRQRY-NH2 [Compound 54, Y-Aib-E-G-T-F-T-S-D-Y-S-I-Aib-L-E-K-Q-A-E-Aib-A-F-V-Q-W-L-I-K(1,3)-GGPSEPASLRHYYNWLTRQRY-NH2.C18DA-gGlu-gGlu-gGlu-gGlu-eLys(1,2)]"
0.13,0.81,18.3,0.19,,,"H-Y[Aib]EGTFTSDYSI[Aib]LEKQAE[Aib]AFVQWLIK([εLys-γGlu-γGlu-γGlu-γGlu-γGlu-C18 diacid])GGPSEGASLRHYYNWLTRQRY-NH2 [Compound 138, Y-Aib-E-G-T-F-T-S-D-Y-S-I-Aib-L-E-K-Q-A-E-Aib-A-F-V-Q-W-L-I-K(1,3)-GGPSEGASLRHYYNWLTRQRY-NH2.C18DA-gGlu-gGlu-gGlu-gGlu-gGlu-eLys(1,2)]"
